In US10751339B2, “Substituted aminopyrimidine compounds and methods of use” (SUNSHINE LAKE PHARMA CO., LTD., priority 2018, dated 2020):
pIC50: −log10 of the molar value.

Tests used:
[1] = Compound stability in human liver microsomes; format: in vitro ADME; conditions: pH 7.4; for CLint scaled at 5 μM: liver microsomes, in vivo CLint extrapolated from human liver microsome incubation; for half-life at 5 μM: human liver microsomes 0.5 mg protein/mL, compound 5 μM, NADPH, 37° C., read-out: Human T1/2
Protocol: (§1) Human or rat liver microsomes incubations were conducted in duplicate in polypropylene tubes. The typical incubation mixtures consisted of human or rat liver microsomes (0.5 mg protein/mL), compounds of interest (5 μM) and NADPH (1.0 mM) in a total volume of 200 μL potassium phosphate buffer (PBS, 100 mM, pH 7.4). Compounds were dissolved in DMSO and diluted with PBS such that the final concentration of DMSO was 0.05%. The enzymatic reactions were commenced with the addition of protein after a 3-min preincubation and incubated in a water bath open to the air at 37° C. Reactions were terminated at various time points (0, 5, 10, 15, 30, 60 min) by adding equal volume of ice-cold acetonitrile. The samples were stored at −80° C. until LC/MS/MS assays.
(§2) The concentrations of compounds in the incubation mixtures of human or rat liver microsomes were determined by a LC/MS/MS method. The ranges of the linearity in the concentration range were determined for each tested compounds.
(§3) A parallel incubation was performed using denatured microsomes as the negative control, and reactions were terminated at various time points (0, 15, 60 min) after incubation at 37° C.
(§4) Dextromethorphan (70 μM) was selected as the positive control, and reactions were terminated at various time points (0, 5, 10, 15, 30, 60 min) after incubation at 37° C. Both positive and negative control samples were included in each assay to ensure the integrity of the microsomal incubation system.
(§5) The concentrations of compounds in human or rat liver microsome incubations were plotted as a percentage of the relevant zero time point control for each reaction.

[2] = Compound stability in rat liver microsomes; format: in vitro ADME; conditions: for CLint scaled at 5 μM: liver microsomes, in vivo CLint extrapolated from rat liver microsome incubation; for CLint scaled at 5 μM / half-life at 5 μM: pH 7.4; for half-life at 5 μM: read-out: Rat T1/2
Protocol: as §1, §2, §3, §4, §5

[3] = Pharmacokinetic profiles in rats; format: in vivo, rat; conditions: for clearance / AUC(0-t) / half-life / Vd: iv dosing 1 mg/kg; for AUC(0-t) / half-life / Vd / bioavailability: rat, plasma; for Vd: read-out: Vss; for bioavailability: oral bioavailability
Protocol: The compounds disclosed herein are assessed in pharmacokinetic studies in mice, rats, dogs or monkeys. The compounds are administered as a water solution, 2% HPMC+1% TWEEN®80 in water solution, 5% DMSO+5% solutol in saline, 4% MC suspension or capsule. For the intravenous administration, the animals are generally given at 1 or 2 mg/kg dose. For the oral (p.o.) dosing, mice and rats are generally given 5 or 10 mg/kg dose, and dogs and monkeys are generally given 10 mg/kg dose. The blood samples (0.3 mL) are drawn at 0.25, 0.5, 1.0, 2.0, 3.0, 4.0, 6.0, 8.0, 12 and 24 h time points or 0.083, 0.25, 0.5, 1.0, 2.0, 4.0, 6.0, 8.0 and 24 h time points and centrifuged at 3,000 or 4000 rpm for 2 to 10 min. The plasma solutions are collected, stored at −20° C. or −70° C. until analyzed by LC/MS/MS as described above.

[4] = target: PI3K (p110α/p85α) (h) (Homo sapiens (Human), UniProt P42336); assay: PI3K (p110α/p85α) (h) non-radioactive HTRF kinase assay; format: biochemical
Sequence of PI3K (p110α/p85α) (h) (P42336 whole entry, the tested form may be a part): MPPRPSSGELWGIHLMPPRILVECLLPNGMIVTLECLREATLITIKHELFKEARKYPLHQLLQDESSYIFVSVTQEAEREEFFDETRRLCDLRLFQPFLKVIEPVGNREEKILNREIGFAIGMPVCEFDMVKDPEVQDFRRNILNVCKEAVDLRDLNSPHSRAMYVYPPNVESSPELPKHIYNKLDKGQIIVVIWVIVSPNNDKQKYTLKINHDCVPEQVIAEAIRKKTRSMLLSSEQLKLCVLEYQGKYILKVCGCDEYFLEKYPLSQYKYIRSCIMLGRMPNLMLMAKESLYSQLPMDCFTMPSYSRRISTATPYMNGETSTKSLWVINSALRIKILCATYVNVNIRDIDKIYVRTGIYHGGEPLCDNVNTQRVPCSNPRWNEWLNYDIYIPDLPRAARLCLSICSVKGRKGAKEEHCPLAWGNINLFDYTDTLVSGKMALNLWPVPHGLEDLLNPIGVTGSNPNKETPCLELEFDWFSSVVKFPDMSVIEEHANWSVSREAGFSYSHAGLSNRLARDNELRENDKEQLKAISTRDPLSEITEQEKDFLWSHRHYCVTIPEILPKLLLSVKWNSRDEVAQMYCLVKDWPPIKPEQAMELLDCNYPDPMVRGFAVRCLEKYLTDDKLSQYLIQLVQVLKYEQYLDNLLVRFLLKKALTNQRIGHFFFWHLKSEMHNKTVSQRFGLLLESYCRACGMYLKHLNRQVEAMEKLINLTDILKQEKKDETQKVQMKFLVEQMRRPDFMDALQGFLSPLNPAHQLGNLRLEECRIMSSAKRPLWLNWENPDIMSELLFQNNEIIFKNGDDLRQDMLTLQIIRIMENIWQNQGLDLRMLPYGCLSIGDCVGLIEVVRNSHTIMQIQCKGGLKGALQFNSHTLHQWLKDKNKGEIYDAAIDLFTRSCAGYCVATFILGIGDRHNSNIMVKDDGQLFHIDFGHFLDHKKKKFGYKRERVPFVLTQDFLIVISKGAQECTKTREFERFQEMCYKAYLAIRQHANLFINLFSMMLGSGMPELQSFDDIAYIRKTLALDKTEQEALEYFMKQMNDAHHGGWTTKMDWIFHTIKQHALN
Sequence of PI3K (p110α/p85α) (h) (P27986 whole entry partner, the tested form may be a part): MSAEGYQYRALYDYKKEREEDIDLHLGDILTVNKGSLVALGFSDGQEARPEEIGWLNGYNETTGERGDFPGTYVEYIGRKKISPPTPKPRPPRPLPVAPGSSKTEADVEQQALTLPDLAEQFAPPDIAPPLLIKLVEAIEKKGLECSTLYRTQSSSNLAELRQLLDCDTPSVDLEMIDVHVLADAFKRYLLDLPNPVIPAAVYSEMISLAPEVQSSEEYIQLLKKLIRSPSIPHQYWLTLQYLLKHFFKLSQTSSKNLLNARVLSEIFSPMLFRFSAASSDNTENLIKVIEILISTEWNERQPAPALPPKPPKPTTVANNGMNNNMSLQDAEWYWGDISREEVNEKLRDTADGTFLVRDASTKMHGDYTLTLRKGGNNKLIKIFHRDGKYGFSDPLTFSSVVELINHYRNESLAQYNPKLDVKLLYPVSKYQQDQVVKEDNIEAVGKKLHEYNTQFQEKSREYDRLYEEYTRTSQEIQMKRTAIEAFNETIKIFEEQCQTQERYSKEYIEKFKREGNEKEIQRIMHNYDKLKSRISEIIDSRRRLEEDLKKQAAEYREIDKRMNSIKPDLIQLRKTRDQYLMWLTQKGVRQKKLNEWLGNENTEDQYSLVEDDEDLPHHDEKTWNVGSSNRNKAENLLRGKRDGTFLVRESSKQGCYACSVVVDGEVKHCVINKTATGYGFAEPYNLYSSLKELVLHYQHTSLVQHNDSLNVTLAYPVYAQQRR
Protocol: (§6) PI3K (p110α/p85α) (h) is incubated in assay buffer containing 10 μM phosphatidylinositol 4,5-bisphosphate and MgATP (concentration as required). The reaction is initiated by the addition of the ATP solution. After incubation for 30 minutes at room temperature, the reaction is stopped by the addition of stop solution containing EDTA and biotinylated phosphatidylinositol-3,4,5-trisphosphate. Finally, detection buffer is added, which contains europium-labelled anti-GST monoclonal antibody, GST-tagged GRP1 PH domain and streptavidin allophycocyanin. The plate is then read in timeresolved fluorescence mode and the homogenous time-resolved fluorescence (HTRF) signal is determined according to the formula HTRF=10000×(Em665 nm/Em620 nm).
(§7) The kinase assays described herein were performed at Millipore UK Ltd, Dundee Technology Park, Dundee DD2 1SW, UK.

[5] = target: PI3K (p110β/p85α) (h) (Homo sapiens (Human), UniProt P42338); assay: PI3K (p110β/p85α) (h) non-radioactive HTRF kinase assay; format: biochemical
Sequence of PI3K (p110β/p85α) (h) (P42338 whole entry): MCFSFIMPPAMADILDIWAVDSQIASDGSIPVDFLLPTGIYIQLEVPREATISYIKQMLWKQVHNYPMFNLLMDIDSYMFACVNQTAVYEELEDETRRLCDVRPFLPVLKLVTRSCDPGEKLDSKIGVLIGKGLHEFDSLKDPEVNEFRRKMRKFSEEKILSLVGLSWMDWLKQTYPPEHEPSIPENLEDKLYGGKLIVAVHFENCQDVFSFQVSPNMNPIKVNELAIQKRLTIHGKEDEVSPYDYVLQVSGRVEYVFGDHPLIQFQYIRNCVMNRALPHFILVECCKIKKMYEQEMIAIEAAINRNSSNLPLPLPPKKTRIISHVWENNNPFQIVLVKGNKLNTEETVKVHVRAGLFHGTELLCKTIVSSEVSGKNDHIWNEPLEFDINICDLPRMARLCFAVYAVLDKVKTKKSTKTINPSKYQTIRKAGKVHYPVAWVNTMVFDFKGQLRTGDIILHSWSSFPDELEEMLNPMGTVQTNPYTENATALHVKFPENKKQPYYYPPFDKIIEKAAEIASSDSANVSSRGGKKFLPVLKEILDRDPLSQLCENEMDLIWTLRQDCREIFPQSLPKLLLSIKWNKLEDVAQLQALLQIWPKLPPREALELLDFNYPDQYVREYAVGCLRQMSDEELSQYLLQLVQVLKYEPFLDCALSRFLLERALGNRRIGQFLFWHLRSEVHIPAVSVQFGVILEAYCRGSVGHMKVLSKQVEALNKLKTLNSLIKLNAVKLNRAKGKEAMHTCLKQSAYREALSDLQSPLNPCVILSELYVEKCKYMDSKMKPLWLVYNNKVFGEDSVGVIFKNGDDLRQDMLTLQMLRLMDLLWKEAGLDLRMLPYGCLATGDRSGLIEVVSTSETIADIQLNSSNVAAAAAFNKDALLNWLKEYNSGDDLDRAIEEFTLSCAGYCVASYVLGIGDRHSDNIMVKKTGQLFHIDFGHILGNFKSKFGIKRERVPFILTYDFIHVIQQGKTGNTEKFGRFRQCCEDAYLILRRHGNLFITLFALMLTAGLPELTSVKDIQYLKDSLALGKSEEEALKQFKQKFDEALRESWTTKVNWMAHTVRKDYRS
Sequence of PI3K (p110β/p85α) (h) (P27986 whole entry partner): as the sequence (P27986 whole entry partner, the tested form may be a part) above
Protocol: as §6, with “(p110β/p85α)” for “(p110α/p85α)”, “phosphatidylinositol-4,5-bisphosphate” for “phosphatidylinositol 4,5-bisphosphate”, “MgATP mix.” for “ATP solution.”, “streptavidin-allophycocyanin.” for “streptavidin allophycocyanin.”
as §7

[6] = target: PI3K (p110δ/p85α) (h) (Homo sapiens (Human), UniProt O00329); assay: PI3K (p110δ/p85α) (h) non-radioactive HTRF kinase assay; format: biochemical
Sequence of PI3K (p110δ/p85α) (h) (O00329 whole entry): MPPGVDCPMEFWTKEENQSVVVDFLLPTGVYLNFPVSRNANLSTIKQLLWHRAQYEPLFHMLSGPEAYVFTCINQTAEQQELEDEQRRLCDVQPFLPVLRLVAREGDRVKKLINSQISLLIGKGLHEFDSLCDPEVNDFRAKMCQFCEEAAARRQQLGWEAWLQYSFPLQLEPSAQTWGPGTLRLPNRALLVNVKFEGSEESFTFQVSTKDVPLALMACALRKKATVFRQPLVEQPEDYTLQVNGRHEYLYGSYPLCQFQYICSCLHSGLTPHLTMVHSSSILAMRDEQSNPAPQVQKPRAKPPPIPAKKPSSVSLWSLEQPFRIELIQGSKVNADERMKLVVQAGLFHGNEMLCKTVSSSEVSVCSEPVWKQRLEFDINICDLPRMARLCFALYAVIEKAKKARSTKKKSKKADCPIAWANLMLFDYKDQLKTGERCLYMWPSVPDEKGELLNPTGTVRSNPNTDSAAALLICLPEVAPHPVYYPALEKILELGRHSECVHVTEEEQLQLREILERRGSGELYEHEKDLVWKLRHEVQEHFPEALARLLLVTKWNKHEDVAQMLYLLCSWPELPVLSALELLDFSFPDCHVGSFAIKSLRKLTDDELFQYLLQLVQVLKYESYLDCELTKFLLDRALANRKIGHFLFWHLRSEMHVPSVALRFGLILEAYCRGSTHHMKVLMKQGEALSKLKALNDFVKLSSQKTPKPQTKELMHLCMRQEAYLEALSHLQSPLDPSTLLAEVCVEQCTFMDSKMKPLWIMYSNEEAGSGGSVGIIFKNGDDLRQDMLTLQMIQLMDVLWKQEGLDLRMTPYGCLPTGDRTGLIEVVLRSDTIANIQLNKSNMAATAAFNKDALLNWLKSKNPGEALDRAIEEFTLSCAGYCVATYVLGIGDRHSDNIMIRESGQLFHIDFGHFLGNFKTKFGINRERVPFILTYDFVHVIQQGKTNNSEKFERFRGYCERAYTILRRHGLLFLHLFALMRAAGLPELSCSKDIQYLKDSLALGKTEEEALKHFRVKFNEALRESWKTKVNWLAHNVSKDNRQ
Sequence of PI3K (p110δ/p85α) (h) (P27986 whole entry partner): as the sequence (P27986 whole entry partner, the tested form may be a part) above
Protocol: as §6, with “(p110δ/p85α)” for “(p110α/p85α)”, “phosphatidylinositol-4, 5-bisphosphate” for “phosphatidylinositol 4,5-bisphosphate”, “MgATP mix.” for “ATP solution.”, “streptavidin-allophycocyanin.” for “streptavidin allophycocyanin.”
as §7

[7] = target: PI3K (p120γ) (h) (Homo sapiens (Human), UniProt P48736); assay: PI3K (p120γ) (h) non-radioactive HTRF kinase assay; format: biochemical
Sequence of PI3K (p120γ) (h) (P48736 whole entry): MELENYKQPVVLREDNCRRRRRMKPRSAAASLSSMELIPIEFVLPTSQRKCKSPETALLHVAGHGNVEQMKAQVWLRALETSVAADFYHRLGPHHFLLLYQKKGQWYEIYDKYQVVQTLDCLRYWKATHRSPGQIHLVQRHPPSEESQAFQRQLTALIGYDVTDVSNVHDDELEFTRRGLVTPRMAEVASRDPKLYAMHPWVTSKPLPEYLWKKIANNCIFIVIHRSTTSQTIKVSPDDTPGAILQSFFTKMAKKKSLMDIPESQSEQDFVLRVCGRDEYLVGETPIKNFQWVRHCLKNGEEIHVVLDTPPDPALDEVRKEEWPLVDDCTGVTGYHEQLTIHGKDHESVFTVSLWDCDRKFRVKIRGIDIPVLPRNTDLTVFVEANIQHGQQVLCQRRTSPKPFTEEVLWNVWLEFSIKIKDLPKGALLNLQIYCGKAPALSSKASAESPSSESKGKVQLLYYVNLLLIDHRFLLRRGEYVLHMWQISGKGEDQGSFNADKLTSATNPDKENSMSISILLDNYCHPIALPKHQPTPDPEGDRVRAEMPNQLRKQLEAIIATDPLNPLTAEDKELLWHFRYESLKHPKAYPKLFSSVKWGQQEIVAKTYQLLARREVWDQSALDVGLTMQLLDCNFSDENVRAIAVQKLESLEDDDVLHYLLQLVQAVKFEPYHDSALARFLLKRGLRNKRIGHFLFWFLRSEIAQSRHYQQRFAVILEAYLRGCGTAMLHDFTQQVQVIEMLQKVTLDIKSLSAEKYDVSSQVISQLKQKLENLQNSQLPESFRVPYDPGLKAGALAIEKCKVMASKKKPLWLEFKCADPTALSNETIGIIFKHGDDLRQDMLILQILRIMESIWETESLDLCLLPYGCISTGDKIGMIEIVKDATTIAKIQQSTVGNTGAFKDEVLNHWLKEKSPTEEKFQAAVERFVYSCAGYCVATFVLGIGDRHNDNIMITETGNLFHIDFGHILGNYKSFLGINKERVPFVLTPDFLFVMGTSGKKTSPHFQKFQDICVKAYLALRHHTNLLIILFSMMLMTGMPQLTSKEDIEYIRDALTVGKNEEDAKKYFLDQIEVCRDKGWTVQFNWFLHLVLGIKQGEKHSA
Protocol: as §6, with “(p120γ)” for “(p110α/p85α)”, “phosphatidylinositol-4, 5-bisphosphate” for “phosphatidylinositol 4,5-bisphosphate”, “MgATP mix.” for “ATP solution.”, “streptavidin-allophycocyanin.” for “streptavidin allophycocyanin.”
as §7

[8] = rat liver microsomes 0.5 mg protein/mL, compound 5 μM, NADPH, 37° C.

Row | SMILES | CLint scaled at 5 μM [1] | half-life at 5 μM [1] | Rat T1/2 [2, 8] | clearance [3] | AUC(0-t) [3] | half-life [3] | Vd [3] | bioavailability [3] | CLint scaled at 5 μM [2] | half-life at 5 μM [2, 8] | pIC50 [4] | pIC50 [5] | pIC50 [6] | pIC50 [7]
1 | Cc1nnc(-c2c(N)ncnc2N[C@@H](C)c2nc3cccc(C#CC(C)(C)O)c3c(=O)n2-c2ccccc2)o1 [Example 2, (S)-2-(1-((6-amino-5-(5-methyl-1,3,4-oxadiazol-2-yl)pyrimidin-4-yl)amino)ethyl)-5-(3-hydroxy-3-methylbut-1-yn-1-yl)-3-phenylquinazolin-4(3H)-one] | 3.84 mL/min/kg | 7.54 h | ∞ | 11.3 mL/min/kg | 1370 ng·h/mL | 1.42 h | 1.3 L/kg | 106% | – | – | – | – | – | –
2 | Cc1nc(-c2c(N)ncnc2N[C@@H](C)c2nc3cccc(C#CC(C)(C)O)c3c(=O)n2-c2ccccc2)no1 [Example 3, (S)-2-(1-((6-amino-5-(5-methyl-1,2,4-oxadiazol-3-yl)pyrimidin-4-yl)amino)ethyl)-5-(3-hydroxy-3-methylbut-1-yn-1-yl)-3-phenylquinazolin-4(3H)-one] | 9.46 mL/min/kg | 3.06 h | – | 13 mL/min/kg | 1210 ng·h/mL | 1.76 h | – | 146% | 4.75 mL/min/kg | 8.72 h | – | – | – | –
3 | C[C@H](Nc1ncnc(N)c1-c1nnn(C)n1)c1nc2cccc(C#CC(C)(C)O)c2c(=O)n1-c1ccccc1 [Example 4, (S)-2-(1-((6-amino-5-(2-methyl-2H-tetrazol-5-yl)pyrimidin-4-yl)amino)ethyl)-5-(3-hydroxy-3-methylbut-1-yn-1-yl)-3-phenylquinazolin-4(3H)-one] | 5.8 mL/min/kg | 5 h | – | 8.33 mL/min/kg | 1870 ng·h/mL | 1.87 h | 1.04 L/kg | 134% | 5.58 mL/min/kg | 7.41 h | – | – | – | –
4 | Cc1nnc(-c2c(N)ncnc2N[C@@H](C)c2nc3cccc(C#CC(C)O)c3c(=O)n2-c2ccccc2)o1 (stereo partly drawn) [Example 7, 2-((S)-1-((6-amino-5-(5-methyl-1,3,4-oxadiazol-2-yl)pyrimidin-4-yl)amino)ethyl)-5-(3-hydroxybut-1-yn-1-yl)-3-phenylquinazolin-4(3H)-one] | 6.34 mL/min/kg | 4.57 h | – | 19.3 mL/min/kg | 862 ng·h/mL | 0.61 h | 0.61 L/kg | 38.3% | 15.3 mL/min/kg | 2.71 h | – | – | – | –
5 | CC#Cc1cccc2nc([C@H](C)Nc3ncnc(N)c3-c3nnc(C)o3)n(-c3ccccc3)c(=O)c12 [Example 10, (S)-2-(1-((6-amino-5-(5-methyl-1,3,4-oxadiazol-2-yl)pyrimidin-4-yl)amino)ethyl)-3-phenyl-5-(prop-1-yn-1-yl)quinazolin-4(3H)-one] | – | – | – | – | – | – | – | – | – | – | 5.55 | 6.26 | 8.22 | 6.47
6 | CC#Cc1cccc2nc([C@H](CC)Nc3ncnc(N)c3-c3nnc(C)o3)n(-c3ccccc3)c(=O)c12 [Example 15, (S)-2-(1-((6-amino-5-(5-methyl-1,3,4-oxadiazol-2-yl)pyrimidin-4-yl)amino)propyl)-3-phenyl-5-(prop-1-yn-1-yl)quinazolin-4(3H)-one] | – | – | – | – | – | – | – | – | – | – | < 5.52 | < 5.52 | 7.57 | 6.15
7 | CC#Cc1cccc2nc([C@H](C)Nc3ncnc(N)c3-c3nnc(C)o3)n(C3CC3)c(=O)c12 [Example 22] | 62.5 mL/min/kg | 0.464 h | – | 25.3 mL/min/kg | 675 ng·h/mL | 0.97 h | 1.83 L/kg | 83.7% | 41.8 mL/min/kg | 0.991 h | – | – | – | –
8 | Cc1noc(-c2c(N)ncnc2N[C@@H](C)c2cc3cccc(C#CCO)c3c(=O)n2C2CC2)n1 [Example 33, (S)-3-(1-((6-amino-5-(3-methyl-1,2,4-oxadiazol-5-yl)-pyrimidin-4-yl)amino)ethyl)-2-cyclopropyl-8-(3-hydroxyprop-1-yn-1-yl)-isoquinolin-1 (2H)-one] | – | – | – | – | – | – | – | – | – | – | 6.00 | 6.98 | 7.96 | 6.93
9 | Cc1nc(-c2c(N)ncnc2N[C@@H](C)c2nc3cccc(C#CCO)c3c(=O)n2-c2ccccc2)no1 [Example 38, (S)-2-(1-((6-amino-5-(5-methyl-1,2,4-oxadiazol-3-yl)pyrimidin-4-yl)amino)ethyl)-5-(3-hydroxyprop-1-yn-1-yl)-3-phenylquinazolin-4(3H)-one] | 40.4 mL/min/kg | 0.717 h | – | 21.3 mL/min/kg | 790 ng·h/mL | 0.76 h | 1.35 L/kg | 40.4% | 52.7 mL/min/kg | 0.785 h | – | – | – | –
10 | Cc1noc(-c2c(N)ncnc2N[C@@H](C)c2cc3cccc(C#CCO)c3c(=O)n2-c2ccccc2)n1 [Example 40, (S)-3-(1-((6-amino-5-(3-methyl-1,2,4-oxadiazol-5-yl)pyrimidin-4-yl)amino)ethyl)-8-(3-hydroxyprop-1-yn-1-yl)-2-phenylisoquinolin-1 (2H)-one] | – | – | – | – | – | – | – | – | – | – | 6.15 | 6.81 | 8.30 | 7.36
11 | C#Cc1cccc2nc([C@H](C)Nc3ncnc(N)c3-c3nnn(C)n3)n(C3CC3)c(=O)c12 [Example 52, (S)-2-(1-((6-amino-5-(2-methyl-2H-tetrazol-5-yl)pyrimidin-4-yl)amino)ethyl)-3-cyclopropyl-5-ethynylquinazolin-4(3H)-one] | 89.4 mL/min/kg | 0.324 h | – | 23 mL/min/kg | 722 ng·h/mL | 0.73 h | 1.11 L/kg | 70.8% | 79.8 mL/min/kg | 0.519 h | – | – | – | –
